This note sets out measurements from patent US20260176253A1 (priority 2021, published 2026).

Bounds are passed on as bounds.

Data set [1] relates to 5HT2A sensor. The format is cell-based.
In another data set the test system is mice. The data set is described as follows: Head-twitch response (HTR) in mice. It counts as in vivo. The protocol:
Head twitch response (HTR) experiments. C57BL/6J Mice (9-10 weeks old) are housed following an IACUC approved protocol. The mice are habituated in the test cage for at least 30 min, injected intraperitoneally with compound (injection volume 5 ml/kg), returned to the empty test cage, and filmed for 20 minutes. Each video is scored for the number of head-twitches by a trained observer blinded to treatment condition.

Data set [2] deals with 5HT2A sensor. The format is cell-based. The source holds these as a separate data set.
The target in data set [3] is T1, 5-HT2A (Homo sapiens, UniProt P28223). The data set is described as follows: Serotonin 5-HT2A in vitro radioligand binding competition assay ([3H]-DOI). On the set-up: purchased Epics Therapeutics S. A. (Belgium), contract assay FAST-0505B; host or cells: membrane extracts. The note with it: [3H]-DOI competition, membrane extracts; read-out: 5HT2A R[…] ACTIVITY
The protocol:
Serotonin 5-HT2AIn Vitro Radioligand Binding Competition Assay. The 5-HT2A radioligand binding competition assay was performed at Epics Therapeutics S. A. (Belgium, FAST-0505B) using conventional methods. Briefly, competition binding is performed in duplicate in the wells of a 96 well plate (Master Block, Greiner, 786201) containing binding buffer (optimized for each receptor), membrane extracts (amount of protein/well optimized for each receptor), radiotracer [3H]-DOI (final concentration optimized for each receptor) and test compound. Nonspecific binding was determined by co-incubation with 200-fold excess of cold competitor. The samples were incubated in a final volume of 0.1 ml at a temperature and for a duration optimized for each receptor and then filtered over filter plates. Filters were washed six times with 0.5 ml of ice-cold washing buffer (optimized for each receptor) and 50 µl of Microscint 20 (Packard) were added in each well. The plates were incubated 15 min on an orbital shaker and then counted with a TopCount™ for 1 min/well.

The next data set relates to rat cortical neurons. The data set is described as follows: Neurite outgrowth in primary neuronal cultures assay. The format is cell-based. Also on record: key: A: Statistically significant mean increase as a percent of DMSO control at 10 μM or less; B: No statistically significant mean increase as a percent of DMSO control at 10 μM or less. Conditions: 72h, vs DMSO control, 10 μM or less. The text has this:
Neurite Outgrowth Assay. Neurite Outgrowth in Primary Neuronal Cultures Assay. Changes in the pattern of neurite outgrowth have been implicated in psychiatric and neurodegenerative disorders as well as traumatic injuries. The discovery of new compounds that can positively affect neuritogenesis are important for developing new therapeutics for neurological diseases. Measurement of neurite outgrowth of rat cortical neurons using an automated image-based assay was used to determine the neuroplastic effects of the compounds of the present disclosure. The neurite outgrowth assay was performed at Neurofit SAS (France) as described below.
Pregnant Wistar rats (Janvier; France) were used for the study. They were delivered 6 days before their use. Upon arrival at Neurofit animal facility, they were housed one per cage and maintained in a room with controlled temperature (21-22° C.) and a reversed light-dark cycle (12 h/12h; lights on: 17:30-05:30; lights off: 05:30-17:30) with food and water available ad libitum.
Female Wistar rats of 17 days gestation were killed by cervical dislocation and the fetuses were removed from the uterus. Their brains were placed in ice-cold medium of Leibovitz (L15, Gibco, Fisher bioblock, France). Cortices were dissected and meninges were carefully removed. The cortical neurons were dissociated by trypsinization for 30 min at 37° C. (trypsin-EDTA, Gibco) in presence of 0.1 mg/ml DNAse I (Roche, France). The reaction was stopped by addition of Dulbecco's Modified Eagle Medium (DMEM; Gibco) with 10% of fetal bovine serum (FBS; Gibco). The suspension was triturated with a 10-ml pipette and using a needle syringe 21G and centrifuged at 350×g for 10 min at room temperature. The pellet of dissociated cells was resuspended in a medium consisting of Neurobasal (Gibco) supplemented with 2% B27 supplement (Gibco), 0.5 mM L-Glutamine (Gibco), an antibiotic-antimicotic mixture. Viable cells were counted in a Neubauer cytometer using the trypan blue exclusion test (Sigma). Cells were seeded at a density of 10000 cells per well in 96-well plate (Costar) precoated with poly-L-lysine. Test compound at different concentrations were added to the cultures. Donepezil (positive control) was tested at 250 nM.
After 72h (3 days) of plating, cultures were fixed with paraformaldehyde in PBS (4%, Sigma) for 30 min at 4° C. Then, cells were successively permeabilized with 0.1% Triton X100 for 30 min, saturated with PBS containing 3% of BSA and were incubated 1 h with anti-beta III tubulin antibody (Sigma) at 1/10 000 in PBS containing 0.5% of BSA. Cells were washed three times with PBS containing 0.5% of BSA, and they were incubated 1 h with goat anti-mouse antibody coupled with AF488 (Invitrogen A11001) diluted at 1/1000 in PBS containing 0.5% of BSA. Finally, nuclei were staining with DAPI 1 mg/ml at 1/1000 in PBS containing 0.5% of BSA. After rinsing with PBS, the plate was filmed and neurite networks were examined and analyzed using High-Content Screening (CellInsight, Thermo Scientific). The average number of neurites per neuron and the average total length of neurites per neuron were the main parameters analyzed. Analysis of data was performed using analysis of variance (ANOVA). The Fisher's Protected Least Significant Difference test was used for multiple comparisons. A p value ≤0.05 was considered significant. The software used is StatView 5.0 from SAS Institut.

Data set [4] addresses T1, 5-HT2A. The data set is described as follows: Serotonin 5-HT2A in vitro cellular IPOne antagonism assay (HTRF). It counts as cell-based. On the set-up: host or cells: CHO-K1. The note with it: CHO-K1 cells, reference agonist a-Me-5HT. The protocol: Serotonin 5-HT2AIn Vitro Cellular IPOne Antagonism Assay. The 5-HT2AIPOne HTRF assay was performed at Epics Therapeutics S. A. (Belgium, FAST-0505I) in antagonism mode using conventional methods. Briefly, CHO—K1 cells expressing human recombinant 5-HT2A receptor grown to mid-log phase in culture media without antibiotics were detached with PBS-EDTA, centrifuged, and resuspended in medium without antibiotics buffer. 20,000 cells were distributed in a 96 well plate and incubated overnight at 37° C. with 5% Co2.
For antagonist testing, a reference agonist a-Me-5HT was added and fluorescence signal monitored for several minutes, followed by addition of 20 μl of assay buffer plus 20 μl of test compound or reference antagonist ketanserin, in each well. The plate was incubated for 60 min. at 37° C. with 5% CO2.
(§1) After addition of the lysis buffer containing IP1-d2 and anti-IP1 cryptate detection reagents, plates were incubated 1-hour at room temperature, and fluorescence ratios were measured according to the manufacturer specification, with the HTRF kit.

Data set [5] has as its target T1, 5-HT2A. The data set is described as follows: Serotonin 5-HT2A in vitro cellular IPOne agonism assay (HTRF). It counts as cell-based. Also on record: host or cells: CHO-K1. Conditions: CHO-K1 cells, 60 min. The protocol: Serotonin 5-HT2AIn Vitro Cellular IPOne Agonism Assay. The 5-HT2AIPOne HTRF assay was performed at Epics Therapeutics S. A. (Belgium, FAST-0505I) using conventional methods. Briefly, CHO—K1 cells expressing human recombinant 5-HT2A receptor grown to mid-log phase in culture media without antibiotics were detached with PBS-EDTA, centrifuged, and resuspended in medium without antibiotics buffer. 20,000 cells were distributed in a 96 well plate and incubated overnight at 37° C. with 5% Co2.
For agonist testing, the medium was removed and 20 μl of assay buffer plus 20 μl of test compound or reference agonist were added in each well. The plate was incubated for 60 min. at 37° C. with 5% CO2.
as §1

T1 sequence (P28223 whole entry): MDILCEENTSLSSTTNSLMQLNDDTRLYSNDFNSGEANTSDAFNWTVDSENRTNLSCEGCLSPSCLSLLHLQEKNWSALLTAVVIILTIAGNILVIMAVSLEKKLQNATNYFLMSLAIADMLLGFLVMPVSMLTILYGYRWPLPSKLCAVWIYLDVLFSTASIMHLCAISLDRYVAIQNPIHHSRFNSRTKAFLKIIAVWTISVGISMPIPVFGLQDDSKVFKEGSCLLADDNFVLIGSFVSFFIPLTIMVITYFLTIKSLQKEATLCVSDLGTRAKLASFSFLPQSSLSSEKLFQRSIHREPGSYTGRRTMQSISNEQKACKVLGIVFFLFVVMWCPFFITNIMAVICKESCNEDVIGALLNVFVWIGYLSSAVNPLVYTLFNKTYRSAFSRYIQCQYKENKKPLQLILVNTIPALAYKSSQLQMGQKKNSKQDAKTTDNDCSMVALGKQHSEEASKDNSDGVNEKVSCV

For the compound `CN[C@H](C)Cc1ccc2c(c1)OCO2` [L-MDMA], the “activation of the 5HT2A sensor assay in agonist mode” value (“activation of the 5HT2A sensor assay” for short) in the data set with 5HT2A sensor [1] was “do not activate the 5HT2A sensor assay in agonist mode”.

As to `COc1cc(CC(C)N)c(OC)cc1I` (stereo not drawn) [DOI], the “activation of the 5HT2A sensor assay” value in the data set on 5HT2A sensor [1] was “activate the 5HT2A sensor assay in agonist mode”.

For `COc1ccc2c(CCN(C)C)c[nH]c2c1` [Compound 6-MeO-DMT], in the data set on 5HT2A sensor [1], the “activation of the 5HT2A sensor assay” value is recorded as “do not activate the 5HT2A sensor assay in agonist mode”. Besides, in the data set on mice, the “head-twitch response (HTR)” value is reported as “does not produce a HTR”. The “competition with 5-HT in the 5HT2A sensor assay in antagonist mode” value (shortened to “competition with 5-HT”) in the data set on 5HT2A sensor [2] is “compete off 5-HT”.

Take `CCN(CC)CCc1c[nH]c2cc(F)ccc12` [Compound 6-F-DET]: the “activation of the 5HT2A sensor assay” value in the data set on 5HT2A sensor [1] is on record as “do not activate the 5HT2A sensor assay in agonist mode”. Besides, the “competition with 5-HT” value in the data set on 5HT2A sensor [2] is “can compete with 5HT binding to 5HT2A”.

As for `CN(C)CCc1c[nH]c2ccccc12` [DMT, N,N-dimethyltryptamine], the “activation of the 5HT2A sensor assay” value with 5HT2A sensor [1] is on record as “activate the 5HT2A sensor assay in agonist mode”.

For the compound `CCN(CC)C(=O)[C@@H]1C=C2c3cccc4[nH]cc(c34)C[C@H]2N(C)C1` [LSD], in the data set on 5HT2A sensor [1], the “activation of the 5HT2A sensor assay” value is recorded as “activate the 5HT2A sensor assay in agonist mode”.

Regarding `COc1ccc2[nH]cc(CCN(C)C)c2c1` [Compound 5-MeO-DMT], the “activation of the 5HT2A sensor assay” value in the data set on 5HT2A sensor [1] was “activate the 5HT2A sensor assay in agonist mode”. In addition, in the data set on mice, the “head-twitch response (HTR)” value is listed as “robust, dose-dependent head-twitch response”.

`c1ccc2c3c([nH]c2c1)CCN1CCC[C@H]1C3` [Compound 23, (S)-1,2,3,5,6,7,12,12a-octahydropyrrolo[1′,2′:1,7]azepino[4,5-b]indole]: the IC50 on 5-HT2A [3] was 101 to 1000 nM. Besides, in the data set with rat cortical neurons, the “INCREASE IN NEURITE BRANCHING” value is given as “A”, the “INCREASE IN NEURITE LENGTH” value was “A” and the “INCREASE IN NEURITE NUMBER” value was “A”. On 5-HT2A [4], this compound showed an IC50 of 10 to 100 nM. In addition, at 5-HT2A [5], the EC50 was over 10 µM.

In the case of `O=C(c1ccc(F)cc1)C1CCN(CCn2c(=O)[nH]c3ccccc3c2=O)CC1` [Ketanserin], the “activation of the 5HT2A sensor assay” value with 5HT2A sensor [1] is “do not activate the 5HT2A sensor assay in agonist mode”. For the same compound, the “competition with 5-HT” value with 5HT2A sensor [2] is on record as “can compete with 5HT binding to 5HT2A”.

Consider `CCN(CC)C(=O)[C@@H]1C=C2c3cccc4[nH]c(Br)c(c34)C[C@H]2N(C)C1` [BOL148], for which the “activation of the 5HT2A sensor assay” value in the data set with 5HT2A sensor [1] was “do not activate the 5HT2A sensor assay in agonist mode”. Moreover, the “competition with 5-HT” value in the data set on 5HT2A sensor [2] is on record as “can compete with 5HT binding to 5HT2A”.

On to `FC(F)(F)c1cccc2[nH]c3c(c12)CCN1CCCC1C3` (stereo not drawn) [Compound 21, 7-(trifluoromethyl)-1,2,3,5,6,11,12,12a-octahydropyrrolo[1′,2′:1,2]azepino[4,5-b]indole], for which, on 5-HT2A [3], the IC50 lay in the range of 1000 to 10000 nM. Also, in the data set with rat cortical neurons, the “INCREASE IN NEURITE BRANCHING” value is “A”, the “INCREASE IN NEURITE LENGTH” value is given as “A” and the “INCREASE IN NEURITE NUMBER” value is recorded as “B”. On 5-HT2A [4], this compound registered an IC50 of 101 to 1000 nM. Also, the EC50 on 5-HT2A [5] is over 10 µM.

On to `COc1cccc2[nH]c3c(c12)C[C@H]1CCCN1CC3` [Compound 26, (R)-11-methoxy-1,2,3,5,6,7,12,12a-octahydropyrrolo[1′,2′:1,7]azepino[4,5-b]indole], for which the IC50 on 5-HT2A [3] is 101 to 1000 nM. In the data set with rat cortical neurons, the “INCREASE IN NEURITE BRANCHING” value is given as “A”, the “INCREASE IN NEURITE LENGTH” value is given as “A” and the “INCREASE IN NEURITE NUMBER” value was “A”. Also, the IC50 at 5-HT2A [4] is under 10 nM. Further, the EC50 at 5-HT2A [5] was in the range of 0.01 to 0.1 µM.
